Tested on: Acinetobacter baumannii strains
Test: Antibiotic susceptibility test (CLSI disk diffusion test method, read per CLSI 2016); also: key: ‘S’ means susceptible; ‘I’ means intermediate; ‘R’ means resistant
Format: cell-based

SMILES: CN(C)c1cc(NC(=O)CNC(C)(C)C)c(O)c2c1C[C@H]1C[C@H]3[C@H](N(C)C)C(O)=C(C(N)=O)C(=O)[C@@]3(O)C(O)=C1C2=O [Tigecycline, tigecycline]
- antibiotic susceptibility class (host strain YMC14/01/C29): S
- antibiotic susceptibility class (host strain YMC14/01/IP122): S
- antibiotic susceptibility class (host strain YMC14/01/L8): S
- antibiotic susceptibility class (host strain YMC14/01/P31): S
- antibiotic susceptibility class (host strain YMC14/01/P117): S
- antibiotic susceptibility class (host strain YMC14/01/P224): I
- antibiotic susceptibility class (host strain YMC14/01/P727): R
- antibiotic susceptibility class (host strain YMC14/01/P728): S
- antibiotic susceptibility class (host strain YMC14/01/R130): S
- antibiotic susceptibility class (host strain YMC14/01/R160): S
- antibiotic susceptibility class (host strain YMC14/01/R198): S
- antibiotic susceptibility class (host strain YMC14/01/R257): S
- antibiotic susceptibility class (host strain YMC14/01/R270): S
- antibiotic susceptibility class (host strain YMC14/01/R324): S
- antibiotic susceptibility class (host strain YMC14/01/R443): S
- antibiotic susceptibility class (host strain YMC14/01/R451): S
- antibiotic susceptibility class (host strain YMC14/01/R560): R
- antibiotic susceptibility class (host strain YMC14/01/R617): S
- antibiotic susceptibility class (host strain YMC14/01/R671): S
- antibiotic susceptibility class (host strain YMC14/01/R732): R
- antibiotic susceptibility class (host strain YMC14/01/R767): S
- antibiotic susceptibility class (host strain YMC14/01/R904): S
- antibiotic susceptibility class (host strain YMC14/01/R905): S
- antibiotic susceptibility class (host strain YMC14/01/R921): S
- antibiotic susceptibility class (host strain YMC14/01/R941): R
- antibiotic susceptibility class (host strain YMC14/01/R958): R
- antibiotic susceptibility class (host strain YMC14/01/R1006): S
- antibiotic susceptibility class (host strain YMC14/01/R1199): S
- antibiotic susceptibility class (host strain YMC14/01/R1659): S
- antibiotic susceptibility class (host strain YMC14/01/R1722): S
- antibiotic susceptibility class (host strain YMC14/01/R1752): S
- antibiotic susceptibility class (host strain YMC14/01/R2429): S
- antibiotic susceptibility class (host strain YMC14/01/R2572): I
- antibiotic susceptibility class (host strain YMC14/01/R2855): S
- antibiotic susceptibility class (host strain YMC14/01/R2945): S
- antibiotic susceptibility class (host strain YMC14/01/R3007): S
- antibiotic susceptibility class (host strain YMC14/01/R3129): I
- antibiotic susceptibility class (host strain YMC14/01/R3317): S
- antibiotic susceptibility class (host strain YMC14/01/R3474): S
- antibiotic susceptibility class (host strain YMC14/01/R3574): S
- antibiotic susceptibility class (host strain YMC14/01/U313): R
- antibiotic susceptibility class (host strain YMC14/01/U318): S
- antibiotic susceptibility class (host strain YMC14/02/L18): S
- antibiotic susceptibility class (host strain YMC14/02/P47): I
- antibiotic susceptibility class (host strain YMC14/02/R1860): I
- antibiotic susceptibility class (host strain YMC14/02/R2417): S
- antibiotic susceptibility class (host strain YMC14/02/R2599): S
- antibiotic susceptibility class (host strain YMC14/02/R2668): R
- antibiotic susceptibility class (host strain YMC14/02/R2758): R
- antibiotic susceptibility class (host strain YMC14/02/R2781): S
- antibiotic susceptibility class (host strain YMC14/02/R3106): S
- antibiotic susceptibility class (host strain YMC14/02/R3419): R
- antibiotic susceptibility class (host strain YMC14/02/U1607): S
- antibiotic susceptibility class (host strain YMC14/03/L9): S
- antibiotic susceptibility class (host strain YMC14/03/P471): S
- antibiotic susceptibility class (host strain YMC14/03/R122): R
- antibiotic susceptibility class (host strain YMC14/03/R217): S
- antibiotic susceptibility class (host strain YMC14/03/R380): R
- antibiotic susceptibility class (host strain YMC14/03/R618): S
- antibiotic susceptibility class (host strain YMC14/03/R2144): S
- antibiotic susceptibility class (host strain YMC14/03/U4616): S
- antibiotic susceptibility class (host strain YMC14/04/R1078): S
- antibiotic susceptibility class (host strain YMC14/04/R1080): S
- antibiotic susceptibility S/I/R (host strain YMC14/06/R2359): S
- susceptibility category (S/I/R) (host strain YMC14/06/R2359): S
- antibiotic susceptibility S/I/R (host strain YMC14/08/R1169): R
- susceptibility category (S/I/R) (host strain YMC14/08/R1169): R
- antibiotic susceptibility S/I/R (host strain YMC14/08/T90): S
- susceptibility category (S/I/R) (host strain YMC14/08/T90): S
- susceptibility category (S/I/R) (host strain YMC15/02/R436): I
- antibiotic susceptibility S/I/R (host strain YMC15/02/T28): S
- susceptibility category (S/I/R) (host strain YMC15/02/T28): S
- antibiotic susceptibility S/I/R (host strain YMC15/03/R1604): S
- susceptibility category (S/I/R) (host strain YMC15/03/R1604): S
- susceptibility category (S/I/R) (host strain YMC15/09/R1869): I
- antibiotic susceptibility S/I/R (host strain YMC16/01/P11): S
- susceptibility category (S/I/R) (host strain YMC16/01/P11): S
- antibiotic susceptibility S/I/R (host strain YMC16/01/R123): S
- susceptibility category (S/I/R) (host strain YMC16/01/R123): S
- antibiotic susceptibility S/I/R (host strain YMC16/01/R198): S
- susceptibility category (S/I/R) (host strain YMC16/01/R198): S
- antibiotic susceptibility S/I/R (host strain YMC16/01/R353): S
- susceptibility category (S/I/R) (host strain YMC16/01/R353): S
- antibiotic susceptibility S/I/R (host strain YMC16/01/R380): S
- susceptibility category (S/I/R) (host strain YMC16/01/R380): S
- antibiotic susceptibility S/I/R (host strain YMC16/01/R397): S
- susceptibility category (S/I/R) (host strain YMC16/01/R397): S
- antibiotic susceptibility S/I/R (host strain YMC16/01/R405): R
- susceptibility category (S/I/R) (host strain YMC16/01/R405): R
- susceptibility category (S/I/R) (host strain YMC16/03/R4461): I
- antibiotic susceptibility S/I/R (host strain YMC16/05/R2210): S
- susceptibility category (S/I/R) (host strain YMC16/05/R2210): S
- antibiotic susceptibility S/I/R (host strain YMC16/07/R2512): S
- susceptibility category (S/I/R) (host strain YMC16/07/R2512): S
- antibiotic susceptibility S/I/R (host strain YMC16/09/R2471): S
- susceptibility category (S/I/R) (host strain YMC16/09/R2471): S
- antibiotic susceptibility S/I/R (host strain YMC16/10/R2537): S
- susceptibility category (S/I/R) (host strain YMC16/10/R2537): S
- antibiotic susceptibility S/I/R (host strain YMC16/12/B11422): S
- susceptibility category (S/I/R) (host strain YMC16/12/B11422): S
- antibiotic susceptibility S/I/R (host strain YMC16/12/B11449): S
- susceptibility category (S/I/R) (host strain YMC16/12/B11449): S
- antibiotic susceptibility S/I/R (host strain YMC16/12/B13325): S
- susceptibility category (S/I/R) (host strain YMC16/12/B13325): S
- antibiotic susceptibility S/I/R (host strain YMC16/12/P503): S
- susceptibility category (S/I/R) (host strain YMC16/12/P503): S
- susceptibility category (S/I/R) (host strain YMC16/12/R4637): I
- antibiotic susceptibility S/I/R (host strain YMC17/01/B8053): R
- susceptibility category (S/I/R) (host strain YMC17/01/B8053): R
- antibiotic susceptibility S/I/R (host strain YMC17/01/B10087): S
- susceptibility category (S/I/R) (host strain YMC17/01/B10087): S
- antibiotic susceptibility S/I/R (host strain YMC17/01/B12075): S
- susceptibility category (S/I/R) (host strain YMC17/01/B12075): S
- antibiotic susceptibility S/I/R (host strain YMC17/01/B13454): S
- susceptibility category (S/I/R) (host strain YMC17/01/B13454): S
- antibiotic susceptibility S/I/R (host strain YMC17/01/P518): S
- susceptibility category (S/I/R) (host strain YMC17/01/P518): S
- susceptibility category (S/I/R) (host strain YMC17/01/R2812): I
- antibiotic susceptibility S/I/R (host strain YMC17/02/B14): S
- susceptibility category (S/I/R) (host strain YMC17/02/B14): S
- antibiotic susceptibility S/I/R (host strain YMC17/02/B87): S
- susceptibility category (S/I/R) (host strain YMC17/02/B87): S
- antibiotic susceptibility S/I/R (host strain YMC17/02/B721): S
- susceptibility category (S/I/R) (host strain YMC17/02/B721): S
- antibiotic susceptibility S/I/R (host strain YMC17/02/B4039): S
- susceptibility category (S/I/R) (host strain YMC17/02/B4039): S
- antibiotic susceptibility S/I/R (host strain YMC17/02/B4520): S
- susceptibility category (S/I/R) (host strain YMC17/02/B4520): S
- antibiotic susceptibility S/I/R (host strain YMC17/02/B4864): S
- susceptibility category (S/I/R) (host strain YMC17/02/B4864): S
- antibiotic susceptibility S/I/R (host strain YMC17/02/B8414): R
- susceptibility category (S/I/R) (host strain YMC17/02/B8414): R
- antibiotic susceptibility S/I/R (host strain YMC17/02/P523): S
- susceptibility category (S/I/R) (host strain YMC17/02/P523): S
- susceptibility category (S/I/R) (host strain YMC17/02/R541): I
- antibiotic susceptibility S/I/R (host strain YMC17/02/R2392): S
- susceptibility category (S/I/R) (host strain YMC17/02/R2392): S
- antibiotic susceptibility S/I/R (host strain YMC17/03/B4730): R
- susceptibility category (S/I/R) (host strain YMC17/03/B4730): R
- antibiotic susceptibility S/I/R (host strain YMC17/03/B5000): S
- susceptibility category (S/I/R) (host strain YMC17/03/B5000): S
- antibiotic susceptibility S/I/R (host strain YMC17/03/P971): R
- susceptibility category (S/I/R) (host strain YMC17/03/P971): R
- antibiotic susceptibility S/I/R (host strain YMC17/03/R348): S
- susceptibility category (S/I/R) (host strain YMC17/03/R348): S
- susceptibility category (S/I/R) (host strain YMC17/03/R585): I
- antibiotic susceptibility S/I/R (host strain YMC17/03/R1888): R
- susceptibility category (S/I/R) (host strain YMC17/03/R1888): R
- antibiotic susceptibility S/I/R (host strain YMC17/03/R3279): S
- susceptibility category (S/I/R) (host strain YMC17/03/R3279): S
- antibiotic susceptibility S/I/R (host strain YMC17/03/R4077): R
- susceptibility category (S/I/R) (host strain YMC17/03/R4077): R
- antibiotic susceptibility S/I/R (host strain YMC17/03/R4607): S
- susceptibility category (S/I/R) (host strain YMC17/03/R4607): S
- antibiotic susceptibility S/I/R (host strain YMC17/04/R488): S
- susceptibility category (S/I/R) (host strain YMC17/04/R488): S
- antibiotic susceptibility S/I/R (host strain YMC17/04/R640): R
- susceptibility category (S/I/R) (host strain YMC17/04/R640): R
- susceptibility category (S/I/R) (host strain YMC/17/05/R1095): I
